Test results reported in article PMC1933452, “Molecular Basis of Resistance to Muramidase and Cationic Antimicrobial Peptide Activity of Lysozyme in Staphylococci” (PLoS Pathogens, 2007).
Several values for one entry are separate records, joined by “and”; a condition that tells them apart may be missing. Equal values may be shown once. Read-outs that look alike come from different tables or passages of the source. Where a SMILES comes first, the peptide text is derived from it. Bridges are numbered along the chain shown (N, C = ends). Where no end group is shown, it is not given here. [ ]: non-standard residue; d: D form. The star is where a group is joined. X1 = CC[C@H](C)CCCCC(=O)*; Dab = NCC[C@H](N)C(=O)O

Tests used:
[1] = tested on: SA113; type: cell-based, Staphylococcus aureus; conditions: for MIC: SA113, serial dilution, BM without glucose with 0.5% xylose, 37 °C, 20–24 h, mean of three to five independent experiments
Procedure: (§1) The overnight cultures were diluted in BM with 0.5% xylose to a concentration of 0.5 × 10^6 CFU per ml and aliquoted in 0.5-ml samples, and cationic agents in different concentrations were added.

[2] = tested on: graRS::erm; experiment: MIC assay, graRS mutant; type: cell-based, Staphylococcus aureus; conditions: for Susceptibility of graRS mutant relative to WT: from MIC values; for MIC: graRS::erm, serial dilution, BM without glucose with 0.5% xylose, 37 °C, 20–24 h, mean of three to five independent experiments
Procedure: as §1

[3] = tested on: oatA::kan; experiment: MIC assay, oatA mutant; type: cell-based, Staphylococcus aureus; conditions: serial dilution, BM without glucose with 0.5% xylose, 37 °C, 20–24 h, mean of three to five independent experiments
Procedure: as §1

[4] = tested on: oatA::kan/graRS::erm; experiment: MIC assay, oatA/graRS double mutant; type: cell-based, Staphylococcus aureus; conditions: for MIC: oatA::kan/graRS::erm, serial dilution, BM without glucose with 0.5% xylose, 37 °C, 20–24 h, mean of three to five independent experiments
Procedure: as §1

[5] = tested on: dltA::spc; experiment: MIC assay, dltA mutant; type: cell-based, Staphylococcus aureus; conditions: for MIC: dltA::spc, serial dilution, BM without glucose with 0.5% xylose, 37 °C, 20–24 h, mean of three to five independent experiments
Procedure: as §1

[6] = tested on: oatA::kan/dltA::spc; experiment: MIC assay, oatA/dltA double mutant; type: cell-based, Staphylococcus aureus; conditions: for MIC: oatA::kan/dltA::spc, serial dilution, BM without glucose with 0.5% xylose, 37 °C, 20–24 h, mean of three to five independent experiments
Procedure: as §1

[7] = tested on: graRS::erm (pTXgraRS); experiment: MIC assay, complemented graRS mutant; type: cell-based, Staphylococcus aureus; conditions: for MIC: graRS::erm (pTXgraRS), serial dilution, BM without glucose with 0.5% xylose as inductor, 37 °C, 20–24 h, mean of three to five independent experiments
Procedure: as §1

[8] = tested on: SA113 (pTXgraRS); experiment: MIC assay, WT overexpressing graRS; type: cell-based, Staphylococcus aureus; conditions: for MIC: SA113 (pTXgraRS), serial dilution, BM without glucose with 0.5% xylose as inductor, 37 °C, 20–24 h, mean of three to five independent experiments
Procedure: as §1

[9] = tested on: WT SA113; experiment: Effects of cationic agents on exponential growth, WT; type: cell-based, Staphylococcus aureus; conditions: WT SA113, BM 37 °C, agent added at OD578nm 1.0; Lys or heat-inactivated Lys 300 μg/ml, LP9 200 μg/ml, PMB 20 μg/ml, Gdm 8 μg/ml
Procedure: (§2) Overnight cultures were diluted to an OD578nm of 0.1 in 50 ml of BM and the cultures were incubated with shaking at 37 °C. OD was determined every hour. Ten milliliters of each culture were transferred into a new 100-ml flask when the cultures reached an OD578nm of nearly 1.0. Then, cationic agents, such as hen egg-white lysozyme and human lysozyme (Sigma-Aldrich, http://www.sigmaaldrich.com/), LP9 (a lysozyme-derived 9-aa peptide, 107R-A-W-V-A-W-R-N-R115–NH2) (EMC, http://www.microcollections.de/), polymyxin B (Sigma-Aldrich), gallidermin (Genmedics, http://www.genmedics.com/), or mutanolysin (Sigma), were added. Lysozyme was inactivated by heating for 1 h at 100 °C and placed on ice. The OD578nm of all cultures was measured hourly up to 7–8 h and after 24 h.

[10] = tested on: graRS mutant; experiment: Effects of cationic agents on exponential growth, graRS mutant; type: cell-based, Staphylococcus aureus; conditions: PMB 20 μg/ml; for Susceptibility of growing culture (OD578nm) / Resumption of growth in the presence of the CAMP: graRS mutant, Gdm 8 μg/ml; for Susceptibility of growing culture (OD578nm): BM 37 °C, agent added at OD578nm 1.0, Lys or heat-inactivated Lys 300 μg/ml, LP9 200 μg/ml; for Resumption of growth in the presence of the CAMP: up to 24 h
Procedure: as §2

[11] = tested on: dltA mutant; experiment: Effects of cationic agents on exponential growth, dltA mutant; type: cell-based, Staphylococcus aureus; conditions: LP9 200 μg/ml, PMB 20 μg/ml, Gdm 8 μg/ml; for Susceptibility of growing culture (OD578nm): BM 37 °C, agent added at OD578nm 1.0, Lys or heat-inactivated Lys 300 μg/ml; for Resumption of growth in the presence of the CAMP: up to 24 h
Procedure: as §2

[12] = tested on: oatA mutant; experiment: Effects of cationic agents on exponential growth, oatA mutant; type: cell-based, Staphylococcus aureus; conditions: BM 37 °C, agent added at OD578nm 1.0, Lys or heat-inactivated Lys 300 μg/ml, LP9 200 μg/ml
Procedure: as §2

[13] = tested on: oatA/graRS mutant; experiment: Effects of cationic agents on exponential growth, oatA/graRS mutant; type: cell-based, Staphylococcus aureus; conditions: BM 37 °C, agent added at OD578nm 1.0, Lys 50 μg/ml, heat-inactivated Lys 300 μg/ml, LP9 200 μg/ml
Procedure: as §2

[14] = tested on: PG isolated from oatA mutant; experiment: Turbidometric assay of PG, oatA mutant; type: biochemical, Staphylococcus aureus; conditions: PG of oatA mutant 0.5 mg/ml, 300 μg/ml, 80 mM PBS pH 6.4, 4 h
Procedure: (§3) One liter of BM was inoculated with an overnight culture of the WT SA113 or the mutants. Strains were grown for 12 h with shaking at 37 °C. Cells were centrifuged, washed two times with cold 0.9% NaCl, diluted in 0.9% NaCl, and boiled for 20 min. After the cells were chilled on ice, they were again centrifuged and washed twice with 0.9% NaCl. The cells were disrupted in a mechanical grinding device using glass beads ∅150–212 μm (Sigma-Aldrich) at 4 °C, centrifuged and washed two times with cold H2Obidest, boiled for 30 min in 2% SDS to remove noncovalently bound proteins, and washed four times with H2Obidest. The cell wall fragments were diluted in 0.1 M Tris/HCl (pH 6.8) and incubated with 0.5 mg/ml trypsin for 16 h at 37 °C to degrade cell-bound proteins. After centrifugation and washing with water, the PG was lyophilized.
(§4) For analyzing the susceptibility of PG to lysozyme, we used a modified method turbidometric assay as described by Clarke. The PG of the WT SA113 and the mutants were sonicated and diluted to 0.5 mg in 1 ml of 80 mM PBS (pH 6.4). After the addition of 300 μg lysozyme per ml, the decrease in optical density was monitored at the beginning (0 h) and after 4 h at OD660nm and calculated as percentages.

[15] = tested on: oatA/dltA mutant; experiment: Effects of cationic agents on exponential growth, oatA/dltA mutant; type: cell-based, Staphylococcus aureus; conditions: BM 37 °C, agent added at OD578nm 1.0, Lys 20 μg/ml, LP9 200 μg/ml
Procedure: as §2

[16] = tested on: PG isolated from graRS mutant; experiment: Turbidometric assay of PG, graRS mutant; type: biochemical, Staphylococcus aureus; conditions: PG of graRS mutant 0.5 mg/ml, 300 μg lysozyme per ml, 80 mM PBS pH 6.4, 4 h
Procedure: as §3, §4

[17] = tested on: PG isolated from oatA/graRS double mutant; experiment: Turbidometric assay of PG, oatA/graRS mutant; type: biochemical, Staphylococcus aureus; conditions: PG of oatA/graRS double mutant 0.5 mg/ml, 300 μg lysozyme per ml, 80 mM PBS pH 6.4, 4 h
Procedure: as §3, §4

[18] = tested on: PG isolated from dltA mutant; experiment: Turbidometric assay of PG, dltA mutant; type: biochemical, Staphylococcus aureus; conditions: PG of dltA mutant 0.5 mg/ml, 300 μg lysozyme per ml, 80 mM PBS pH 6.4, 4 h
Procedure: as §3, §4

Row | Molecule | MIC ([1]; 0.5 × 10^6 CFU per ml) | MIC [1] | Susceptibility of graRS mutant relative to WT [2] | MIC [2] | MIC [3] | MIC [4] | MIC [5] | MIC [6] | MIC [7] | MIC [8] | Susceptibility of growing culture (OD578nm) [9] | Susceptibility of growing culture (OD578nm) [10] | Resumption of growth in the presence of the CAMP [10] | Susceptibility of growing culture (OD578nm) [11] | Resumption of growth in the presence of the CAMP [11] | Susceptibility of growing culture (OD578nm) [12] | Susceptibility of growing culture (OD578nm) [13] | Hydrolysis of isolated PG (decrease in OD660nm) [14] | further results
1 | CC[C@H](C)CCCCC(=O)N[C@@H](CCN)C(=O)N[C@H](C(=O)N[C@@H](CCN)C(=O)N[C@H]1CCNC(=O)[C@H]([C@@H](C)O)NC(=O)[C@H](CCN)NC(=O)[C@H](CCN)NC(=O)[C@H](CC(C)C)NC(=O)[C@@H](Cc2ccccc2)NC(=O)[C@H](CCN)NC1=O)[C@@H](C)O [Polymyxin B, polymyxin B] (X1-[Dab]T[Dab][Dab][Dab][dF]L[Dab][Dab]T; lactam 4-C (inferred); N-terminus assumed) | 350 µg/mL | 252.5 µM | 17 fold | 20 μg/ml and 14.4 μM | 350 μg/ml and 252.5 μM | 25 μg/ml and 18 μM | 10 μg/ml and 7.2 μM | 10 μg/ml and 7.2 μM | >800 µg/mL | >500 µg/mL | much less affected | immediate growth arrest | started to grow after some time | more susceptible | unable to resume growth | – | – | – | Increase in resistance by overexpression of graRS (pTXgraRS) in the graRS mutant ([7]; from MIC values): approximately 2 fold; Increase in resistance by overexpression of graRS (pTXgraRS) in the WT ([8]; from MIC values): approximately 2 fold; Growth of subculture challenged again ([10]; new culture inoculated from 24-h graRS culture treated with polymyxin B): no growth retardation
2 | Heat-inactivated lysozyme: Catalytic inactive lysozyme, inactivated by heating for 1 h at 100 °C | – | – | – | – | – | – | – | – | – | – | completely insensitive | does not affect | – | inhibited | – | no activity | able to inhibit the growth | no activity | –
3 | Lysozyme | >50,000 μg/ml | – | – | >50,000 μg/ml | 10,000 μg/ml and 694 μM | 600 μg/ml and 41.6 μM | 2,000 μg/ml and 138.8 μM | 30 μg/ml and 2.08 μM | >50,000 μg/ml | >50,000 μg/ml | completely lysozyme resistant | only marginally affected | – | more sensitive | – | only marginally affected | highly susceptible | sensitive to the muramidase activity | Resistance at highest concentration ([1]; WT, at a concentration of 50 mg/ml): completely resistant; Resistance at highest concentration ([2]; graRS mutant, at a concentration of 50 mg/ml): completely resistant; Sensitivity of oatA/graRS double mutant relative to oatA mutant ([4]; from MIC values): ~17 fold; Sensitivity of dltA single mutant relative to WT ([5]; from MIC values): over 25 fold; Sensitivity of dltA single mutant relative to oatA single mutant ([5]; from MIC values): 5 fold; Sensitivity of oatA/dltA double mutant relative to oatA single mutant ([6]; from MIC values): > 333 fold and 333 fold; Sensitivity of oatA/dltA double mutant relative to oatA/graRS double mutant ([6]; from MIC values): 20 fold; Susceptibility of growing culture (OD578nm) [15]: stays lysozyme sensitive even after 24 h; Hydrolysis of isolated PG (decrease in OD660nm) [16]: completely resistant; Hydrolysis of isolated PG (decrease in OD660nm) [17]: hydrolysed; Hydrolysis of isolated PG (decrease in OD660nm) [18]: not hydrolyzed
4 | gallidermin (IASKFLCTPGCAKTGSFNSYCC; cysteine pairing not given here; also: lantibiotic; UniProt P21838 31-52, looked up) [lantibiotic, CAMP (Genmedics)] | 9 µg/mL | 4.1 µM | 4 fold | 2.5 μg/ml and 1.14 μM | 9 μg/ml and 4.1 μM | 3 μg/ml and 1.36 μM | 1.2 μg/ml and 0.55 μM | 1.2 μg/ml and 0.55 μM | 9 μg/ml and 4.1 μM | 9 μg/ml and 4.1 μM | inhibited the WT | immediate growth arrest | started to grow after some time | more susceptible | unable to resume growth | – | – | – | –
